According to US8722649B2, “Alpha-chloro and alpha-bromo phosphonate analogs of lysophosphatidic acid and methods of making and using thereof” (University of Utah Research Foundation, priority 2007, dated 2014):
Read-outs that look alike come from different tables or passages of the source.

Columns and labels:
[1] = target: T1, recombinant ATX-HA (Homo sapiens, UniProt Q13822); assay: Autotaxin assay (FS-3 hydrolysis); type: biochemical; details: for Inhibition (%) of autotaxin (ATX) phosphodiesterase activity / inhibition at 10 µM: FS-3 substrate
T1 construct: HA
Description: Autotaxin Assay. This assay utilizes FS-3 (Echelon Biosciences, Inc. Salt Lake City, Utah) as substrate and recombinant ATX-HA. For analysis, 50 μl of ATX-HA (0.25 μg) in assay buffer (Tris 50 mM, NaCl 140 mM, KCl 5mM, CaCl2 1 mM, MgCl2 1 mM, pH 8.0) was mixed with 25 μl of FS-3 (1 μM final concentration in assay buffer) and 25 μl of test compound dissolved in assay buffer containing 1:1.5 bovine serum albumin in 96-well plate. FS-3 fluorescence was monitored using FLEXstation fluorescence plate reader at a time zero and after 2 hours of incubation at 37° C. at excitation and emission wavelengths of 485 nm and 538 nm, respectively. Data was normalized to the corresponding vehicle control and the mean±standard deviation of triplicate wells were expressed as percent ATX inhibition. IC50, and Ki values were calculated as described.

[2] = target: T2, human LPA1 (Homo sapiens, UniProt Q92633); assay: Ca2+ mobilization assay, LPA1; type: cell-based; details: for EC50: RH7777 cells stably expressing LPA1, agonist mode; for LPA1 (Emax): Emax = (maximal efficacy of compound/maximal efficacy of LPA 18:1) × 100; for LPA1 ligand type: agonist/antagonist in words
T2 construct: expressed in transfected cells
T2 sequence (Q92633 whole entry): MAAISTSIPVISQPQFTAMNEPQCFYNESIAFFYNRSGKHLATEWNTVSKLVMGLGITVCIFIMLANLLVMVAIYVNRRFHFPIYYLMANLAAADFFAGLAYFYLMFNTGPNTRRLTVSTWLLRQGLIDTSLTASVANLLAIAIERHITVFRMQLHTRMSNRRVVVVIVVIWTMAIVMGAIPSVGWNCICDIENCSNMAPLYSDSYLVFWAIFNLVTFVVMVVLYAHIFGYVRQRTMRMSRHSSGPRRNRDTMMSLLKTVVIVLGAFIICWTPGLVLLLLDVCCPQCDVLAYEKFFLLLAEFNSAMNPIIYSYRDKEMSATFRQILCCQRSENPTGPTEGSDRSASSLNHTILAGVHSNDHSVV
Description: (§1) Receptor activation using Ca^2+ mobilization assay for diastereomers of 1 (also represented as 19b). The rat hepatoma (RH7777) cell lines individually expressing either LPA1, LPA2, LPA3 or LPA5 receptors and Chinese hamster ovary (CHO) cell line were analyzed to examine agonism and antagonism. […] CHO cells stably expressing either vector or LPA4 were kindly gifted from Dr. Shimizu (University of Tokyo, Tokyo, Japan).
(§2) Stable transformants of LPA1/2/3 receptors. RH7777 cells stably expressing each receptor were plated onto poly-L-lysine (PLL) (0.1 mg/mL)-coated black-wall clear-bottom 96-well plates (Corning Incorporated Life Sciences, Acton, Mass.) at a density of 5×10^4 cells/well and cultured overnight. The following day, the culture medium was replaced with modified Krebs buffer (120 mM NaCl, 5 mM KCl, 0.62 mM MgSO4, 1.8 mM CaCl2, 10 mM HEPES, 6 mM glucose, pH 7.4), and the cells were serum starved for 6 h. Subsequently, cells were loaded with Fura-2 AM (Invitrogen, Carlsbad, Calif.) for 35 min in modified Krebs buffer containing 2% (v/v) pluronic acid.
(§3) After incubating the cells with Fura-2 AM, the cells were rinsed with Krebs buffer and changes in the intracellular Ca^2+ concentration were monitored by determining the ratio of emitted light intensities at 520 nm in response to excitation at 340 and 380 nm using FLEXstation II (Molecular Devices, Sunnyvale, Calif.). Each well was monitored for 80-120 sec. For testing agonist activity of the compounds, the test compounds were added automatically after 15 sec of baseline measurement. To determine antagonist properties, varying concentrations of the compounds were mixed with a constant concentration of LPA and responses were monitored. Each test was performed in quadruplicate. EC50, IC50, and Ki values were calculated by fitting a sigmoid function to data points with the nonlinear curve-fitting feature of KaleidaGraph (Synergy Software, Essex Junction, Vt.).
Receptor activation using Ca^2+ mobilization assay. The assay for mobilization of intracellular Ca^2+ was performed as described. Briefly, rat hepatoma RH7777 cells stably expressing human LPA1, LPA2, or LPA3, and CHO cells stably expressing LPA4, were loaded with Fura-2 AM (Molecular Probes). Using a FLEXStation (Molecular Devices, Sunnyvale, Calif.), changes in intracellular Ca^2+ concentration were monitored. Ligand-induced changes in fluorescence were monitored for 80-120 seconds. Ca^2+ transients were quantified automatically by calculating the difference between maximum and baseline ratio values for each sample. To determine antagonist properties, different concentrations of each analogue were mixed with either palmitoyl (16:0) or oleoyl (18:1) LPA (200 nM for LPA1 and LPA3, 10 nM for LPA2, and 400 nM for LPA4) (Avanti Polar Lipids, Inc., […], Ala.) and responses were recorded. Each test was performed in quadruplicate. EC50, IC50, and Ki values were calculated as described. The ligand properties of the compounds were evaluated using Ca^2+ mobilization assay for assessing the activation/inhibition of LPA1, LPA2, and LPA3 expressed in RH7777 cells and LPA4 expressed in CHO cells. Table l illustrates calcium responses elicited through the activation of human LPA1, LPA2, LPA3 and LPA4 receptors. These cell lines have been used extensively for the characterization of LPA GPCR ligands because RH7777 cells are intrinsically unresponsive to LPA and CHO cells show minimal endogenous responses to LPA unless transfected with LPA4.

[3] = target: T3, human LPA2 (Homo sapiens, UniProt Q9HBW0); assay: Ca2+ mobilization assay, LPA2; type: cell-based; details: for EC50: RH7777 cells stably expressing LPA2, agonist mode; for LPA2 (Emax): Emax = (maximal efficacy of compound/maximal efficacy of LPA 18:1) × 100; for LPA2 ligand type: agonist/antagonist in words
T3 construct: expressed in transfected cells
T3 sequence (Q9HBW0 whole entry): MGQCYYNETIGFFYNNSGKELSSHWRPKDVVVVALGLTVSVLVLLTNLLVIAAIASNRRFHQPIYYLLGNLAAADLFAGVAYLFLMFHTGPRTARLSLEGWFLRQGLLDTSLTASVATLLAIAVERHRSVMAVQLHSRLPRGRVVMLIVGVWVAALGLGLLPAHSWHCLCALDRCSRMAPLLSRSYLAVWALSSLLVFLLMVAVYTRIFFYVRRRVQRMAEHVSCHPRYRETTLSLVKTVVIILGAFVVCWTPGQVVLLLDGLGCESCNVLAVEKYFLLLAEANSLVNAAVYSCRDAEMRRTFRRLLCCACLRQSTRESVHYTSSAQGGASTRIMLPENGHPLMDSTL
Description: as §1, §2
as §3, with “To determine antagonist properties, varying concentrations of the compounds were mixed with a constant concentration of LPA and responses were monitored.” left out
Receptor activation using Ca^2+ mobilization assay. The assay for mobilization of intracellular Ca^2+ was performed as described. Briefly, rat hepatoma RH7777 cells stably expressing human LPA1, LPA2, or LPA3, and CHO cells stably expressing LPA4, were loaded with Fura-2 AM (Molecular Probes). Using a FLEXStation (Molecular Devices, Sunnyvale, Calif.), changes in intracellular Ca^2+ concentration were monitored. Ligand-induced changes in fluorescence were monitored for 80-120 seconds. Ca^2+ transients were quantified automatically by calculating the difference between maximum and baseline ratio values for each sample. […] Each test was performed in quadruplicate. EC50, IC50, and Ki values were calculated as described. The ligand properties of the compounds were evaluated using Ca^2+ mobilization assay for assessing the activation/inhibition of LPA1, LPA2, and LPA3 expressed in RH7777 cells and LPA4 expressed in CHO cells.

[4] = 10 μM, read-out: ATX Inhibition (Table 2)
[5] = antagonist mode vs 200 nM LPA, PA = partial antagonist, read-out: LPA1 IC50
[6] = diastereomer study, RH7777 cells, read-out: LPA1 IC50 (Table 2)
[7] = diastereomer study, RH7777 cells, read-out: LPA1 Ki (Table 2)
[8] = antagonist mode vs 10 nM LPA, PA = partial antagonist, read-out: LPA2 IC50
[9] = antagonist mode vs 10 nM LPA, read-out: LPA2 (Ki)
[10] = diastereomer study, RH7777 cells, read-out: LPA2 IC50 (Table 2)
[11] = diastereomer study, RH7777 cells, read-out: LPA2 Ki (Table 2)
[12] = 10.0 μM, preliminary single-dose screen

Row | Inhibition (%) of autotaxin (ATX) phosphodiesterase activity ([1]; 10.0 μM, preliminary single-dose screen, listed as 19b) | inhibition at 10 µM ([1]; 10.0 μM, preliminary single-dose screen, read-out: Inhibition (%) of autotaxin (ATX) phosphodiesterase activity) | inhibition at 10 µM [1, 4] | EC50 [2] | IC50 [2, 5] | Ki ([2]; antagonist mode vs 200 nM LPA, read-out: LPA1 (Ki)) | IC50 [2, 6] | Ki [2, 7] | EC50 [3] | IC50 [3, 10] | Ki [3, 11] | Inhibition (%) of autotaxin (ATX) phosphodiesterase activity [1, 12] | LPA1 (Emax) [2] | LPA2 (Emax) [3] | LPA1 ligand type [2] | LPA2 ligand type [3] | IC50 ([1]; 0.3 to 10 μM, FS-3 hydrolysis, read-out: ATX apparent IC50) | Compound | IC50 [3, 8] | Ki [3, 9]
1 | 93.7 ± 2.0% | > 90% | 102 ± 2.7% | > 30000 nM | 1500 ± 559 nM | 751 nM | 4520 nM | 805 nM | > 30000 nM | 468 nM | 245 nM | – | – | – | – | – | – | CCCCCCCCCCCCCCCC(=O)OC[C@@H](O)CC(Br)P(=O)(O)O (mixture of isomers) [Compound 1, [1-Bromo-3(S)-hydroxyl-4-(palmitoyloxy)butyl]-phosphonate] | 1420 ± 83 nM | 304 nM
2 | – | – | – | > 9250 nM | > 30000 nM | – | – | – | > 2160 nM | – | – | 74.7% | (39.1 ± 3.15) | (71.9 ± 6.0) | – | – | – | CCCCCCCCC=CCCCCCCCC(=O)OCC(O)CC(O)P(=O)([O-])O.[Na+] (mixture of isomers) [Compound 22a, reference compound] | – | –
3 | – | – | – | > 30000 nM | > 30000 nM | – | – | – | > 30000 nM | – | – | 54.1% | – | – | – | – | – | CCCCCCCCCCCCCCCC(=O)OCC(O)CC(O)P(=O)([O-])O.[Na+] (mixture of isomers) [Compound 22b, reference compound] | – | –
4 | – | – | 98.1 ± 2.3% | – | – | – | 648 nM | 273 nM | – | 288 nM | 250 nM | – | – | – | Antagonist | Antagonist | – | CCCCCCCCCCCCCCCC(=O)OC[C@@H](O)C[C@@H](Br)P(=O)(O)O [Compound 1a] | – | –
5 | – | – | 99.4 ± 2.7% | – | – | – | 2080 nM | 752 nM | – | 275 nM | 241 nM | – | – | – | Antagonist | Antagonist | ~300 nM | CCCCCCCCCCCCCCCC(=O)OC[C@@H](O)C[C@H](Br)P(=O)(O)O [Compound 1b] | – | –
6 | – | – | – | 90.8 ± 20.9 nM | > 30000 nM | – | – | – | 55.1 ± 4.3 nM | – | – | 38.1 ± 3.4% | (88.7 ± 3.6) | (100.3 ± 1.9) | – | – | – | CCCCCCCCCCCCCCCC(=O)OCC(O)COP(=O)(O)O (centres unmarked) [LPA (16:0), reference compound] | – | –

Row | Compound | Inhibition (%) of autotaxin (ATX) phosphodiesterase activity ([1]; 10.0 μM, preliminary single-dose screen, listed as 19b) | inhibition at 10 µM ([1]; 10.0 μM, preliminary single-dose screen, read-out: Inhibition (%) of autotaxin (ATX) phosphodiesterase activity) | inhibition at 10 µM [1, 4] | EC50 [2] | IC50 [2, 5] | Ki ([2]; antagonist mode vs 200 nM LPA, read-out: LPA1 (Ki)) | IC50 [2, 6] | Ki [2, 7] | EC50 [3] | IC50 [3, 10] | Ki [3, 11] | Inhibition (%) of autotaxin (ATX) phosphodiesterase activity [1, 12] | LPA1 (Emax) [2] | LPA2 (Emax) [3] | LPA1 ligand type [2] | LPA2 ligand type [3] | IC50 ([1]; 0.3 to 10 μM, FS-3 hydrolysis, read-out: ATX apparent IC50) | IC50 [3, 8] | Ki [3, 9]
7 | CCCCCCCC/C=C\CCCCCCCC(=O)OCC(O)CCP(=O)(O)O (centres unmarked) [Compound 20a, reference compound] | – | – | – | > 2520 nM | > 30000 nM | – | – | – | > 281 nM | – | – | 99.8% | (52.9 ± 11.3) | (94.7 ± 4.3) | – | – | – | – | –
8 | CCCCCCCCCCCCCCCC(=O)OC[C@@H](O)CCP(=O)([O-])O.[Na+] [Compound 20b, reference compound] | – | – | – | > 30000 nM | > 30000 nM | – | – | – | > 30000 nM | – | – | 60.6 ± 4.6% | – | – | – | – | – | 2590 ± 875 nM | 1300 nM
